We go through 8 compounds from patent EP0459298A2, “Use of substituted beta-hydroxyethylamines as potent inhibitors of a fungal exoenzyme” (HOECHST AKTIENGESELLSCHAFT, priority 1990, dated 1991).

One experiment concerns Candida albicans. Set-up: species or system Maus. Conditions: in vivo; for Überlebenszeit (bez. auf Fluconazol = 100 % ): 50 mg/kg. From the text:
Als Beispiele für die systemische in vivo-Wirksamkeit der Verbindungen dient die systemische Candida albicans Infektion bei der Maus.
Ziel dieser Methode ist es, den Effekt von Präparaten auf eine systemische Candida albicans Infektion zu ermitteln. Die Infektion führt innerhalb von 2-4 Tagen zum Tod der Tiere.
Beschreibung der Methode: Albino Mäuse (NMRI, Männchen, 15-20 g Körpergewicht) werden intravenös mit Candida albicans Hefezellen infiziert (Stamm 200/175), die frisch auf Malzagar vorkultiviert wurden und in physiologischer Kochsalzlösung suspendiert wurden. Die Infektionsdosis, die in dem angegebenen Zeitrahmen zur Lethalität führt, wurde photometrisch eingestellt und enthielt eine Million Hefezellen pro Maus.
Die zu prüfenden Verbindungen werden entweder alleine oder in Kombination mit einem Standardantimykotikum verabreicht. Im durchgeführten Test wurde ein Kombinationspräparat verwendet, wobei als Standardantimykotikum Fluconazol (Fa. Pfizer) diente. Applikationswege sind je nach Substanzgruppe unterschiedlich, wobei der oralen Applikation der Vorzug gegeben wird. Die Mäuse werden 4 Wochen beobachtet, die Mortalität wird täglich registriert, und die Überlebenszeiten der einzelnen Gruppen werden gemittelt und untereinander verglichen. Gruppengröße beträgt durchschnittlich 10 Tiere.
Der Vergleich der Mittelwerte geschieht mit dem Students T Test.
Dosierungen: Fluconazol jeweils 8 x p.o. 50 mg/kg/Tag β-Hydroxy-ethylamin jeweils 14 x p.o. 50 mg/kg/Tag

The test system of experiment [1] is liposomalen Phospholipase A1 von Säugern. Conditions: in-vitro-Test; Biochem. Pharmacol. 34, 521-24, 1985; cited from earlier work.
Experiment [2] has as its system Trichophyton mentagrophytes. Description: Percent killing of Trichophyton mentagrophytes in vitro. Format: cell-based. Conditions: nach 14 h in aqua dest., read-out: %-Abtötung von Trichophyton mentagrophytes; for killing at 2.5 µg/mL: 2,5 µg/ml. As for the experimental part:
(Werte in %-Abtötung von Trichophyton mentagrophytes nach 14 h in aqua dest.)

Another experiment concerns Plasmopara viticola. Put plainly: Fungicidal activity on vine seedlings inoculated with Plasmopara viticola. Format: in vivo, Weinsämlinge. Conditions: untreated infected control = 100. As for the experimental part:
Weinsämlinge wurden ca. 6 Wochen nach der Aussaat mit wäßrigen Suspensionen der zu untersuchenden Verbindungen gleichmäßig benetzt. Nach dem Antrocknen des Spritzbelages wurden die Pflanzen mit einer Sporensuspension von Plasmopara viticola inokuliert und für kurze Zeit in eine Klimakammer (23 °C und 80-90 % rel. Luftfeuchte) gestellt. Nach einer Inkubationszeit von 7 Tagen wurden die Pflanzen zur Sporulation des Pilzes erneut für einige Stunden in die Klimakammer gestellt. Anschließend erfolgte die Auswertung des Befalls. Der Befallsgrad wird ausgedrückt in % befallener Blattfläche im Vergleich zu den unbehandelten, infizierten Kontrollpflanzen und ist in Tabelle 4 wiedergegeben.

Setting [3] is: 125 ppm Wirkstoff (mg Wirkstoff/Liter Spritzbrühe).
[4] abbreviates: 250 ppm Wirkstoff (mg Wirkstoff/Liter Spritzbrühe).
[5] abbreviates: 500 ppm Wirkstoff (mg Wirkstoff/Liter Spritzbrühe).

Read-outs that look alike come from different tables or passages of the source.

As to `OC(Cn1cncn1)(Cn1cncn1)c1ccc(F)cc1F` [Fluconazol, reference compound], the “Überlebenszeit (bez. auf Fluconazol = 100 % )” value in the experiment with Candida albicans (po) turned out to be 100%.
As for `CC(C)NCC(O)COc1cccc2ccccc12` (centres unmarked) [Propranolol], the “Hemmwirkung gegenüber Phospholipase aus Leberzellen” value in experiment [1] is recorded as “wirksamste Substanz”.
For `Cc1cc(COc2ccc(Oc3ccc(Cl)cc3)cc2)n(O)c(=O)c1` [Rilopirox, reference compound], in experiment [2], the killing at 5 µg/mL stood at 96.2%, the killing at 10 µg/mL is 100%, the killing at 20 µg/mL is 100% and the killing at 40 µg/mL was determined as 100%. For the same compound, in experiment [2], the killing at 80 µg/mL worked out at 100% and the killing at 2.5 µg/mL was 94.1%.
Consider `CC(C)CC(C)NCC(O)COc1ccccc1C1CCCC1` (centres unmarked) [Verbindung 1.10], for which, in the experiment with Candida albicans, the “Überlebenszeit (bez. auf Fluconazol = 100 % )” value came out at 149%.
In the case of `CC(C)(C)c1ccc(OCC(O)CNc2ccccc2)cc1` (centres unmarked) [Verbindung 1.16], in the experiment on Candida albicans, the “Verlängerung der Überlebenszeit” value is recorded as 65% and the “Überlebenszeit (bez. auf Fluconazol = 100 % )” value came out at 165%.
As to `COc1ccc(CC(C)(C)NCC(O)COc2ccccc2C2CCCC2)cc1` (centres unmarked) [Verbindung 1.18], in experiment [2], the killing at 5 µg/mL was 95.7%, the killing at 10 µg/mL worked out at 100%, the killing at 20 µg/mL was determined as 100% and the killing at 40 µg/mL stood at 100%. In experiment [2], the killing at 80 µg/mL was 100% and the killing at 2.5 µg/mL was 79.3%.
`CC(C)(C)c1ccc(OCC(O)CNCc2cccs2)cc1` (centres unmarked) [Verbindung 1.32]: the “mit Plasmopara viticola befallene Blattfläche in %” value in the experiment on Plasmopara viticola (setting [3]), in the experiment with Plasmopara viticola (setting [4]) and in the experiment on Plasmopara viticola (setting [5]) was 0% each time.
As for `CCCCNCC(O)COc1ccc(C(C)(C)C)cc1` (centres unmarked) [Verbindung 1.37], the “mit Plasmopara viticola befallene Blattfläche in %” value in the experiment with Plasmopara viticola (setting [3]), in the experiment on Plasmopara viticola (setting [4]) and in the experiment with Plasmopara viticola (setting [5]) was 0% throughout.
